Data on two compounds can be found in patent US11083197B2, “Herbicidal composition comprising chromone derivatives and a method for weed control” (INVESTIGACIONES BIOLÓGICAS EN AGROQUÍMICOS ROSARIO S.A., priority 2015, dated 2021).

The subject of one data set is ryegrass. In words: Postemergence bioassay with ryegrass in Petri dishes. To be noted: Lolium multiflorum, post-emergence; 500 μM; day 6 (4 days after application); read-out: Growth inhibition (%) as percentage of control. It is filed as in vivo. How it is done:
Plant length was measured at day 6 (4 days after application of the compounds)
Plant length's axis starts in 5 mm because seeds were pre-incubated in water, so all seedlings were around 5 mm long at the beginning of the treatment.

In data set [1] the test system is A. cepa root meristem cells. In words: Effect on cell division (mitotic index analysis). It is filed as cell-based, Allium cepa. To be noted: for inhibition of cell division: 0 to 1000 μM; for reversibility of inhibition of cellular division: 100 μM, seeds washed at 3 days; for proportion of cells with abnormal configurations: chromosome aberrations, nuclear abnormalities, micronuclei. The method, then: Onion seeds (Allium Cepa L. Evergreen Longwhite Bunching, Burpee & Co, 2012, EE.UU) germination was carried out for 7 days with a 14-h photoperiod in 9-cm-diameter Petri dishes on a filter paper disk that was moistened with a dilution (2.5 mL) of test compound or control. Stock solutions of test compounds (100×) were prepared in acetone, and aliquots were diluted in distilled water to get the final concentration. The control consisted of water with the same proportion of acetone (1% v/v) applied in the treatments.
At 7 days of incubation, samples were processed for mitotic index analysis according to Armbruster et al.^25 Twenty root tips (1-cm sections) were fixed in glacial acetic acid:absolute ethanol (1:3 v/v) for 30 min. The segments were incubated with 5 N HCl at 25° C. for 1 h, and washed several times with distilled water. After that, segments were stained with Schiff's reagent for 45 min in the dark at 25° C. Stained meristematic regions were identified as purple tips. The root segments were transferred with tweezers to a drop of 45% acetic acid in water on a microscope slide. The tips were cut with a razor blade, and a cover slip was carefully placed over the tips and gently squashed by applying slight and constant pressure directly over the tissues. The edge of the cover slip was sealed with nail polish to delay the evaporation of acetic acid. The mitotic index was calculated by tallying the cells in various stages of mitosis. At least 1,000 cells/slide and in triplicate (3,000 cells per treatment) were counted for suitable statistical analysis of data. An Olympus BX60 microscope (Olympus, Center Valley) was used, and cells with abnormal mitotic configurations were counted as a separate class.
This procedure was slightly modified to evaluate if cell division inhibition caused by furanochromones was reversible. For this experiment onion seeds were incubated with solutions containing compounds of formulas III and IV for 3 days. After this period, all seeds were washed three times with distilled water and placed in new Petri dishes on moistened filter paper disks with distilled water (Wash+treatment). Seeds were then incubated for 4 more days, after which a mitotic index analysis was performed. As a reference to compare results, another set of onion seeds was kept with test compounds or control for 7 days (Wash−treatment) before analysis.

Another data set deals with lettuce (Lactuca sativa). In words: Germination / dose-response bioassay with lettuce. It is filed as in vivo. To be noted: for Phytotoxicity at day 7, Lettuce: 1 mM, 24-well plates, rating scale of 0 to 5; for IC50 / inhibition at 1000 µg/mL: lettuce; for IC50: 7 days; for inhibition at 1000 µg/mL: 1 mg/mL, day 7; for lettuce germination: fractions at 1 mg/mL. How it is done:
DCM extract of flowers of A. visnaga (1.6 g) was divided in two 800 mg halves and each one was subjected to column chromatography using an Isolera One system (Biotage), equipped with UV detector (302 and 365 nm) and automatic fraction collector. Separation was performed by normal-phase chromatography column using a SNAP Cartridge KP-Sil (37×157 mm, 50 μm irregular silica, 100 g, Biotage) and a pre-packaged SNAP Samplet Cartridge KP-Sil (37×17 mm, Biotage). A full gradient of hexane:ethyl acetate was used for elution, from 100:0 to 0:100 over 3000 ml. Flow was 40 ml/min and 25 ml fractions were collected. Equal fractions were combined based on similarities on their TLC and chromatogram profiles providing nineteen fractions named I to XIX. All fractions were evaluated for their phytotoxicity on germination bioassay of lettuce (L. sativa) and creeping bentgrass (A. stolonifera).
A filter paper and 5 lettuce or 10 mg of creeping bentgrass seeds were placed in each well of a 24-well plate. Stock solutions (10×) of test compounds were prepared in acetone. 180 μl of distilled water were added to each well together with 20 μl of stock solution or acetone in solvent control. Final concentration of acetone was 10% v/v. Plates were sealed with Parafilm, and incubated at 26° C. in a growth chamber set at 173 μmol m^−2 s^−1 continuous photosynthetically active radiation. Phytotoxic activity was qualitatively evaluated by visually comparing germination in each well with solvent control at 7 days. A qualitative estimation of phytotoxicity was obtained by using a rating scale of 0 to 5, where 0 was no effect, and 5 was no germination of seeds. This procedure was also used for testing the phytotoxicity of pure compounds on ryegrass. On this experiment 12-well plates were used. 10 seeds were placed per well and final volume was 300 μl in each one. During dose-response bioassays used for IC50 determination, germination percentage and length of plants were measured at 7 days in order to determine the concentration required for 50% germination and growth inhibition (IC50). All experiments were done in triplicate.
Using method described in Example 1, compounds of Formula III and IV above were tested against lettuce and ryegrass.
The percentage of germination and length of plants were determined at 7 days. Data represents means of three replicates±SD. The IC50 values, for both germination and growth inhibition by compounds III and IV on lettuce and ryegrass, were obtained from estimated parameters in the regression curves.
Statistical Analysis. Data from dose-response experiments were analyzed by a log-logistic model^37-38 using the dose-response curve module^39 of R software version 2.2.1.^40 Concentrations required for 50% germination or growth inhibition relative to control (IC50 values) were obtained from estimated parameters in the regression curves. The standard error (SE) of each estimation is provided. Data from phytotoxicity bioassays in the laboratory and greenhouse, ROS and cell death quantifications were analyzed by ANOVA using the InfoStat statistical software version 2015,^41 and Scheffe's test was employed to compare the means at α=0.05.

Another data set has as its system lettuce. In words: Phytotoxic effect on lettuce under different conditions of illumination. It is filed as in vivo, Lactuca sativa. Particulars: 1 mM; light versus darkness; 7 days. How it is done: Bioassays were carried out with lettuce in Petri dishes using the commercial standards of each compound. Lettuce seeds were incubated with 4 mL of an aqueous solution of compounds or acetochlor at 1 mM. Lettuce growth was measured at 7 days of incubation.
The results of this test are shown in FIG. 14 where the Left column (diagonal stripes)=Light and the Right column (in black)=Darkness. Acetochlor was included as a reference of pre-emergent herbicide and to get the highest herbicidal effect, all compounds were tested at 1 mM. Data represent means of three replicates±SD. Different letters above the bars indicate significant differences between treatments (p<0.05).

Where [2] appears, read: Lactuca sativa, 168 h, read-out: IC50(μM) ± SE to inhibit germination.
Setting [3] is: Lactuca sativa, 168 h, read-out: IC50(μM) ± SE to inhibit growth.

By inhibition is commonly meant how much of the control response was suppressed. By IC50 is commonly meant the concentration that inhibits the measured activity by half.

Like-named read-outs stand apart in the source and are kept apart here.

For the compound `COc1c2ccoc2cc2oc(C)cc(=O)c12` [Formula IV, 4-methoxy-7-methyl-5H-furo[3,2-g]chromen-5-one], the inhibition at 500 µM with ryegrass is 66%. For the same compound, in data set [1] (7 days), the “inhibition of cell division” value is recorded as “inhibited cell division in a dose-dependent manner”. Moreover, in data set [1], the “reversibility of inhibition of cellular division” value was “irreversible” and the “proportion of cells with abnormal configurations” value is “higher than in the control”. Further, the “inhibition of onion cell division” value in data set [1] (300 μM, 7 days) was “completely inhibited”. In the data set on lettuce (Lactuca sativa), the “Phytotoxicity at day 7, Lettuce” value is reported as 3 and the lettuce germination entry is “completely inhibited”. Also, the IC50 in the data set with lettuce (Lactuca sativa) (setting [2]) is 740 µM. Also, the IC50 in the data set with lettuce (Lactuca sativa) (setting [3]) stood at 170 µM. Besides, the inhibition at 1000 µg/mL in the data set with lettuce (Lactuca sativa) (Lactuca sativa, 168 h) turned out to be 100%. For the same compound, the 50% inhibitory concentration (IC50) in the data set with lettuce (Lactuca sativa) (read-out: IC50(μM) ± SE to inhibit growth) worked out at 175 ± 16 µM. The “light dependence of phytotoxicity or herbicidal activity” value in the data set on lettuce is “not a light-dependent process”.
In the case of `COc1c2occc2c(OC)c2c(=O)cc(C)oc12` [Formula III, 4,9-dimethoxy-7-methyl-5H-furo[3,2-g]chromen-5-one], in the data set on ryegrass, the inhibition at 500 µM stood at 25%. Further, the “inhibition of cell division” value in data set [1] (7 days) was “inhibited cell division in a dose-dependent manner”. In data set [1], the “reversibility of inhibition of cellular division” value is given as “irreversible” and the “proportion of cells with abnormal configurations” value is recorded as “higher than in the control”. Also, in the data set with lettuce (Lactuca sativa), the “Phytotoxicity at day 7, Lettuce” value was found to be 3 and the lettuce germination result is listed as “completely inhibited”. The IC50 with lettuce (Lactuca sativa) (setting [2]) came to 700 µM. The IC50 in the data set with lettuce (Lactuca sativa) (setting [3]) was determined as 110 µM. This compound also registered an inhibition at 1000 µg/mL in the data set with lettuce (Lactuca sativa) (Lactuca sativa, 168 h) of 100%. The IC50 in the data set with lettuce (Lactuca sativa) (read-out: IC50(μM) ± SE to inhibit germination) stood at 701 ± 93 µM. The “light dependence of phytotoxicity or herbicidal activity” value with lettuce was “not a light-dependent process”.
